Reference: article PMC6271231 (Molecules, 2014)
“Also recorded” adds a separate entry of the source.

molecular target: NA of A/PR/8/34 (H1N1) (Influenza A virus, UniProt P03468); assay: biochemical; format: biochemical, influenza A virus A/PR/8/34 (H1N1)
Sequence (P03468 whole entry): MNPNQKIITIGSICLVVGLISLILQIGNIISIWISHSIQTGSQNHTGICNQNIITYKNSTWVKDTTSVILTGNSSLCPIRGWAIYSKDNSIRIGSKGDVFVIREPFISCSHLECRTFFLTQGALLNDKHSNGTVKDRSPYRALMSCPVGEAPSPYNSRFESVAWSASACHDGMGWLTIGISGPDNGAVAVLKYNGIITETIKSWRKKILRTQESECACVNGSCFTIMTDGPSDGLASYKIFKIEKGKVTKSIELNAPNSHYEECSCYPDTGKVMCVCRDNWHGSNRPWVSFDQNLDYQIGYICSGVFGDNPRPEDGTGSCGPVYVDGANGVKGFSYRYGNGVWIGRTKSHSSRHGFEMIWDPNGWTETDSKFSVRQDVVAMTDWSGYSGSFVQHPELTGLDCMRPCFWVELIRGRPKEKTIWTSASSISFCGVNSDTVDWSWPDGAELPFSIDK

Question: `O=C(Oc1cc(O)c2c(c1)OC(c1cc(O)c(O)c(O)c1)C(O)C2)c1cc(O)c(O)c(O)c1` (single isomer, unassigned; (+)) [Compound 3, (+)-3,5,3',4',5'-penta-hydroxyflavan-7-gallate] was tested. Which IC50 did it give?
Answer: > 87.3 µM

Question: How did the IC50 turn out when `CC1(C)O[C@@H]2Cc3c(O)cc(OC(=O)c4cc(O)c(O)c(O)c4)cc3O[C@@H]2c2cc(O)c(O)c(O)c21` [Compound 1, (2R,3R)-7-O-galloylplumbocatechin A] was run?
Answer: 59.7 µM

Question: What about the “inhibitory effect against influenza H1N1 virus neuraminidase (in words)” value of the same compound?
Answer: higher inhibitory activities on NA from influenza H1N1 virus than on those from influenza H3N2 and B viruses; also recorded: moderate inhibitory effects; also recorded: best results

Question: Which IC50 does the source give for `O=C(Oc1cc(O)c2c(c1)O[C@H](c1cc(O)c(O)c(O)c1)CC2)c1cc(O)c(O)c(O)c1` [Compound 2, (−)-5,3',4',5'-tetrahydroxyflavan-7-gallate] here?
Answer: 83.4 µM

Question: And the “inhibitory effect against influenza H1N1 virus neuraminidase (in words)” value?
Answer: higher inhibitory activities on NA from influenza H1N1 virus than on those from influenza H3N2 and B viruses; also recorded: moderate inhibitory effects

Question: Which IC50 does the source give for `O=C(Oc1cc(O)c2c(c1)O[C@H](c1cc(O)c(OC(=O)c3cc(O)c(O)c(O)c3)c(O)c1)CC2)c1cc(O)c(O)c(O)c1` [Compound 4, (−)-7,4'-di-O-galloyltricetiflavan] here?
Answer: > 67.3 µM
